Assay type in all cases: cell-based
Assay [1] has as its system RAMOS cells. The experiment in a line: Cell growth inhibition for Ramos cells (CellTiter-Glo). The settings on record: Homo sapiens, 72 h; RAMOS cell line, 3 days after administration. Here is the method:
RAMOS cells (ATCC) were seeded in 96-well plates at 16,000 cell/well in 90 μl of RPMI growth medium containing 10% Heat-Inactivated Fetal Bovine Serum and 1% Penicillin/Streptomycin. The test compound was administered to the cells by using 10× compound stock solution prepared in growth medium at various concentrations. After administration of the compound, cells were then incubated at 37° C. for 3 days. Before CellTiter-Glo assay, the plates were equilibrated at room temperature for approximately 10 minutes. 100 ul of CellTiter-Glo® Reagent (Promega) was added to each well. The plates were then incubated at room temperature for 10 minutes and luminescence was recorded by EnSpire plate reader (PerkinElmer).
(§1) Table 4 summarizes the androgen receptor (AR) degradative activity and cell growth inhibition of exemplary compounds in (a) LNCAP, VCAP, and 22Rv1 cell lines 24 hours after administration of the compound; (b) RAMOS cell line 3 days after administration of the compound; and (c) VCAP cell line 6 days after administration of the compound. DC50: compound concentration needed for 50% target protein degradation.
(Cellular ATP, detected with luciferase, serves as a proxy for viable cell number.)

Assay [2] relates to VCAP cells. The experiment in a line: Cell growth inhibition for VCAP cells (CellTiter-Glo). The settings on record: Homo sapiens, 144 h; VCAP cell line, 6 days after administration, 0.1 nM R1881, charcoal-stripped FBS. On the procedure: VCAP cells (ATCC) were seeded in 96-well plates at 3000 cell/well in 80 μl of DMEM growth medium containing 10% charcoal-stripped FBS (CSS) and 1% Penicillin/Streptomycin. Cells were incubated at 37° C. overnight. The following day, the test compound was administered to the cells by using 10× compound stock solution prepared in growth medium at various concentrations. Four hours later, 0.1 nM R1881 (Sigma) was administered to the cells by using 10× compound stock solution prepared in growth medium. 0.1% DMSO with or without 0.1 nM R1881 was administered as control. Cells were then incubated at 37° C. for 6 days. Before CelTiter-Glo assay, the plates were equilibrated at room temperature for approximately 10 minutes. 100 ul of CellTiter-Glo® Reagent (Promega) was added to each well. The plates were then incubated at room temperature for 10 minutes and luminescence was recorded by EnSpire plate reader (PerkinElmer).
as §1

In assay [3] the target is T1, androgen receptor (AR) (Homo sapiens, UniProt P10275).
T1 construct: endogenous in cells; host or cells: VCAP
T1 sequence (P10275 1-920): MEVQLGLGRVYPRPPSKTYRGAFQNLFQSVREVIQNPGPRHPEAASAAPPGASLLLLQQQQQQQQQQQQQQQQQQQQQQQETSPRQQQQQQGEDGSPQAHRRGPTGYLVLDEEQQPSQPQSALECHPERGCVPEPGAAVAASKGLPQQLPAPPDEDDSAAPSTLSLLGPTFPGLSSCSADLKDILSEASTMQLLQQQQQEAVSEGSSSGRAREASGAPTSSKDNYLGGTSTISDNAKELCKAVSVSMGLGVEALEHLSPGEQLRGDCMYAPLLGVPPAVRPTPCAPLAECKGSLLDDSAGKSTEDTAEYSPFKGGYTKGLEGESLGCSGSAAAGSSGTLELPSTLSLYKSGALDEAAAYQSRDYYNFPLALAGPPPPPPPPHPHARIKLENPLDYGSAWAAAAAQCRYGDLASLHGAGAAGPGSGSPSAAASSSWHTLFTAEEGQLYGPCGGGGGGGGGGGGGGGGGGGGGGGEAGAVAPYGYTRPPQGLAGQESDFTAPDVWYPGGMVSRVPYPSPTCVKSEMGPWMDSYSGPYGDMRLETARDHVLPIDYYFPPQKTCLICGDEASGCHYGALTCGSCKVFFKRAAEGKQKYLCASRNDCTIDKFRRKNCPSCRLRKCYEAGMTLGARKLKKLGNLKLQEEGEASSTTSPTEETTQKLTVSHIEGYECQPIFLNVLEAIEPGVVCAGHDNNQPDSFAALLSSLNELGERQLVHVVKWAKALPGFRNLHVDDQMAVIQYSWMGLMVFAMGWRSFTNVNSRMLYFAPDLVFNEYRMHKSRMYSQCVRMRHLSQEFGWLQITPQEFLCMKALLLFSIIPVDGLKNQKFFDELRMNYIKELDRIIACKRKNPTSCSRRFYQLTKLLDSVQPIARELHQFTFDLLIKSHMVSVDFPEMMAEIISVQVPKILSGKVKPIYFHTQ
The experiment in a line: AR degradation activity in VCAP cells (Western blot). As to conditions: VCAP cell line, 24 hours after administration; DC50 = concentration for 50% target protein degradation. On the procedure:
(§2) LNCAP, VCAP and 22Rv1 cells were plated in 24-well plates at 1.5×10E5 cells/well in the RPMI growth medium containing 10% FBS and 1% Penicillin Streptomycin, and then incubated at 37° C. overnight. The following day, the test compound was administered to the cells by using 1000× compound stock solution prepared in DMSO at various concentrations. After administration of the compound, the cells were then incubated at 37° C. for 24 hours. Upon completion, the cells were washed with PBS and protein was collected in Laemmli sample buffer (1×; VWR International). Proteins in cell lysate were separated by SDS-PAGE and transferred to Odyssey nitrocellulose membranes (Licor) with iblot® dry blotting transfer system (ThermoFisher). Nonspecific binding was blocked by incubating membranes with Intercept Blocking Buffer (Licor) for 1 hour at room temperature with gentle shaking. The membranes were then incubated overnight at 4° C. with Primary antibodies rabbit anti-AR (1:1,000, Cell Signaling, 5153) and mouse anti-GAPDH (1:5,000, Santa Cruz Biotechnology, sc-47724) diluted in Intercept Blocking Buffer containing 0.1% Tween 20. After washing 3 times with TBS-T, the membranes were incubated with IRDye® […] goat anti-mouse IgG (1:20,000, Licor) or IRDye®8000W goat anti-rabbit IgG (1:20,000, Licor) for 1 hour. After TBS-T washes, membranes were rinsed in TBS and scanned on Odyssey® CLx Imaging System (Licor). The bands were quantified using Image Studio™ Software (Licor).
as §1

The target of assay [4] is T2, androgen receptor (AR) (Homo sapiens, UniProt P10275, T878A).
T2 construct: endogenous in cells; host or cells: LNCAP
T2 sequence (P10275 1-920 T878A): T1 sequence (P10275 1-920) with T878A
The experiment in a line: AR degradation activity in LNCAP cells (Western blot). The settings on record: LNCAP cell line, 24 hours after administration; DC50 = concentration for 50% target protein degradation. Here is the method: as §2, §1
For orientation: Immunoblotting shows a protein as a band on a membrane.

In assay [5] the test system is androgen receptor (AR). The experiment in a line: AR degradation activity in 22Rv1 cells (Western blot). As to conditions: 22Rv1 cell line, 24 hours after administration; DC50 = concentration for 50% target protein degradation. Here is the method:
as §2, §1

Substitutions are numbered along the chain they refer to. Some results are limits rather than exact numbers.

As a reminder, the GI50 is the concentration that inhibits growth by half. As usually defined, the DC50 is the concentration giving 50% degradation. A low value points to degradation at low concentration. `CC1(C)C(NC(=O)c2ccc(N3CCC(CN4CCN(c5ccc6c(c5)C(=O)N(C5CCC(=O)NC5=O)C6=O)CC4)CC3)nc2)C(C)(C)C1Oc1ccc(C#N)c2ncccc12` (stereo not drawn) [Compound 2-13, N-(1,3-trans)-3-((8-cyanoquinolin-5-yl)oxy)-2,2,4,4-tetramethylcyclobutyl)-6-(4-((4-(2-(2,6-dioxopiperidin-3-yl)-1,3-dioxoisoindolin-5-yl)piperazin-1-yl)methyl)piperidin-1-yl)nicotinamide]: the figures for the GI50 in assay [1] and in assay [2] were more than 3000 nM and 47.6 nM, respectively. Moreover, the half-maximal degradation concentration (DC50) in assay [3] and in assay [4] was 0.7 nM each time.

In the case of `CC1(C)C(NC(=O)c2cnc(N3CCC(CN4CCN(c5ccc6c(c5)C(=O)N(C5CCC(=O)NC5=O)C6=O)CC4)CC3)nc2)C(C)(C)C1Oc1ccc(C#N)c2ncccc12` (stereo not drawn) [Compound 2-18, N-(1,3-trans)-3-((8-cyanoquinolin-5-yl)oxy)-2,2,4,4-tetramethylcyclobutyl)-2-(4-((4-(2-(2,6-dioxopiperidin-3-yl)-1,3-dioxoisoindolin-5-yl)piperazin-1-yl)methyl)piperidin-1-yl)pyrimidine-5-carboxamide], the DC50 in assay [3] and in assay [4] was 0.4 nM each time.

As to `CC1(C)[C@H](NC(=O)c2ccc(N3CCC(CN4CCN(c5ccc6c(c5)C(=O)N(C5CCC(=O)NC5=O)C6=O)CC4)CC3)nn2)C(C)(C)[C@H]1Oc1ccc(C#N)c2ncccc12` (stereo partly drawn) [Compound 2-19], the half-maximal degradation concentration (DC50) was 1 nM in assay [3] and 0.5 nM in assay [4].

As for `CC1(C)C(NC(=O)c2ccc(N3CCC(CN4CCN(c5ccc6c(c5)C(=O)N(C5CCC(=O)NC5=O)C6=O)CC4)CC3)cc2)C(C)(C)C1Oc1ccc(C#N)c2ncccc12` (stereo not drawn) [Compound 2-21, N-(1,3-trans)-3-((8-cyanoquinolin-5-yl)oxy)-2,2,4,4-tetramethylcyclobutyl)-4-(4-((4-(2-(2,6-dioxopiperidin-3-yl)-1,3-dioxoisoindolin-5-yl)piperazin-1-yl)methyl)piperidin-1-yl)benzamide], the 50% degradation concentration (DC50) in assay [5] worked out at 0.9 nM; in assay [3], 1.2 nM; in assay [4], 2.2 nM. In addition, the 50% growth inhibitory concentration (GI50) was more than 3000 nM in assay [1] and 18 nM in assay [2].

As to `CC1(C)[C@H](NC(=O)c2ccc(N3CCC(CN4CCN(c5ccc6c(c5)C(=O)N(C5CCC(=O)NC5=O)C6=O)CC4)CC3)c(F)c2)C(C)(C)[C@H]1Oc1ccc(C#N)c2ncccc12` (stereo partly drawn) [Compound 2-22], the values for the DC50 in assay [5], in assay [3] and in assay [4] were 2.8 nM, 1.7 nM and 1 nM, respectively. This molecule also yielded a GI50 in assay [2] of 8 nM.

As for `CC1(C)C(NC(=O)c2ccc(N3CCC(CN4CCN(c5ccc6c(c5)CN([C@H]5CCC(=O)NC5=O)C6=O)CC4)CC3)nc2)C(C)(C)C1Oc1ccc(C#N)c2ncccc12` (stereo partly drawn) [Compound 2-29], the figures for the DC50 in assay [5] and in assay [4] were 0.13 nM and 0.1 nM, respectively. Further, the figures for the GI50 in assay [1] and in assay [2] were more than 3000 nM and 2.1 nM, respectively.

With `CC1(C)C(NC(=O)c2ccc(N3CCC(CN4CCN(c5ccc6c(c5)CN([C@H]5CCC(=O)NC5=O)C6=O)CC4)CC3)c(F)c2)C(C)(C)C1Oc1ccc(C#N)c2ncccc12` (stereo partly drawn) [Compound 2-32], the 50% degradation concentration (DC50) amounted to 0.25 nM in assay [5], 0.3 nM in assay [3] and 0.1 nM in assay [4]. The GI50 in assay [1] is more than 3000 nM; in assay [2], 5.7 nM.

In the case of `CC1(C)C(NC(=O)c2ccc(N3CCC(CCN4CCN(c5ccc6c(c5)C(=O)N(C5CCC(=O)NC5=O)C6=O)CC4)CC3)cc2)C(C)(C)C1Oc1ccc(C#N)c2ncccc12` (stereo not drawn) [Compound 2-43, N-(1,3-trans)-3-((8-cyanoquinolin-5-yl)oxy)-2,2,4,4-tetramethylcyclobutyl)-4-(4-(2-(4-(2-(2,6-dioxopiperidin-3-yl)-1,3-dioxoisoindolin-5-yl)piperazin-1-yl)ethyl)piperidin-1-yl)benzamide], the GI50 was more than 3000 nM in assay [1] and 31.2 nM in assay [2]. Further, the half-maximal degradation concentration (DC50) was 1.8 nM in assay [3] and 2 nM in assay [4].

For the molecule `CC1(C)[C@H](NC(=O)c2ccc(N3CCC(CN4CCN(c5ccc6c(c5)CN(C5CCC(=O)NC5=O)C6=O)CC4)CC3)c(F)c2)C(C)(C)[C@H]1Oc1ccc(C#N)c2ncccc12` (stereo partly drawn) [Compound 2-51, N-((1r,3r)-3-((8-cyanoquinolin-5-yl)oxy)-2,2,4,4-tetramethylcyclobutyl)-4-(4-((4-(2-(2,6-dioxopiperidin-3-yl)-1-oxoisoindolin-5-yl)piperazin-1-yl)methyl)piperidin-1-yl)-3-fluorobenzamide], the values for the GI50 in assay [1] and in assay [2] were more than 3000 nM and 11 nM, respectively. This molecule registered a DC50 in assay [4] of 0.5 nM.
